From publication PMC5488394, “30 YEARS OF THE MINERALOCORTICOID RECEPTOR: Mineralocorticoid receptor antagonists: 60 years of research and development” (The Journal of Endocrinology, 2017)
Read-outs that look alike come from different tables or passages of the source.

Tests used:
[1] = target: T1, ligand binding domain of MR (Homo sapiens, UniProt P08235); assay: functional cell-based MR transactivation assay in CHO-K1 cells; conditions: duplicate
T1 construct: expressed in transfected cells; host or cells: CHO-K1
T1 sequence (P08235 726-964 limits assumed): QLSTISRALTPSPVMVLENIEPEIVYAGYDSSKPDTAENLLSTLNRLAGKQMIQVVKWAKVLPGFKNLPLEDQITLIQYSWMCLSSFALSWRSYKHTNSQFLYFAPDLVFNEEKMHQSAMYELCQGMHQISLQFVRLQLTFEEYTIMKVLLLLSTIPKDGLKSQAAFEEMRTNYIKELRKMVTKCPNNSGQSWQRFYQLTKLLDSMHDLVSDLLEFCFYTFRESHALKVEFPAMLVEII

S810L MR mutant = system: S810L MR mutant; design: method as in Geller et al. 2000, Amazit et al. 2015; conditions: ref Geller et al. 2000, Amazit et al. 2015; cited from earlier work
MR = system: MR; design: method as in Amazit et al. 2015; conditions: ref Amazit et al. 2015; cited from earlier work
[2] = system: SRC-1 recruitment at the promoter of the SCNN1A gene; design: method as in Amazit et al. 2015; conditions: ref Amazit et al. 2015; cited from earlier work
[3] = quantitative whole-body autoradiography, [14C]-labeled, healthy rats; ref Kolkhof et al. 2014; cited from earlier work
DOCA/salt rats = system: DOCA/salt rats; design: method as in Kolkhof et al. 2014; conditions: ref Kolkhof et al. 2014, cited from earlier work
[4] = system: mouse model of pressure overload-induced HF; design: method as in Grune et al. 2016; conditions: ref Grune et al. 2016; cited from earlier work
[5] = design: method as in Pitt et al. 2013; conditions: ref Pitt et al. 2013, cited from earlier work
[6] = design: method as in Filippatos et al. 2016; conditions: 1066 HFrEF patients; ref Filippatos et al. 2016; cited from earlier work
[7] = cited from earlier work; for absolute change in nocturnal BP: day 90, patients with nocturnal hypertension, ref Ruilope et al. 2016
[8] = system: MR vs all other steroid hormone receptors; conditions: ref Bärfacker et al. 2012, Pitt et al. 2012; cited from earlier work

`CCOc1ncc(C)c2c1[C@H](c1ccc(C#N)cc1OC)C(C(N)=O)=C(C)N2` [finerenone] gave an IC50 ([1]; agonist DOCA 10 nM, read-out: IC50 vs DOCA as agonist) of 46 nM, an IC50 ([1]; agonist corticosterone 1 nM, read-out: IC50 vs corticosterone as agonist) of 24 nM and an IC50 ([1]; agonist cortisol 10 nM, read-out: IC50 vs cortisol as agonist) of 5 nM. The “effect on S810L MR mutant” value (S810L MR mutant) was “block”, the “delay of aldosterone-induced nuclear translocation of MR” value (MR) was “more efficiently than spironolactone” and the “mode of action on SRC-1 recruitment” value [2] was “inverse agonist”. The “distribution into cardiac and kidney tissues” value [3] was “balanced distribution”, the “systolic blood pressure vs 100 mg/kg eplerenone” value (DOCA/salt rats; 10 mg/kg finerenone, head-to-head) was “significantly lower” and the “reduction of cardiac hypertrophy, pro-BNP and proteinuria vs eplerenone” value (DOCA/salt rats; equinatriuretic doses) was “more efficiently than eplerenone”. The “prevention of myocardial hypertrophy vs eplerenone” value [4] was “more pronounced prevention of myocardial hypertrophy”, the “decrease of BNP, NT-pro-BNP and urinary albumin vs spironolactone” value ([5]; 5 and 10 mg OD vs spironolactone 25 or 50 mg/day) was “at least as effective as spironolactone” and the “incidence of hyperkalemia vs spironolactone” value ([5]; 5 and 10 mg OD) was “significantly lower incidence”. For the same compound, the “increases in serum potassium vs spironolactone” value ([5]; 5 and 10 mg OD) was “significantly lower increases”, the “outcome including death and CV hospitalization vs eplerenone” value [6] was “nominally improved outcome” and the “absolute change in nocturnal BP” value ([7]; 10 mg dose group) was −9.5 mmHg. The “absolute change in nocturnal BP” value ([7]; 20 mg dose group) was −12.0 mmHg, the albuminuria ([7]; 7.5, 10, 15 and 20 mg, 90 days, on top of SoC, ref Bakris et al. 2015) was “dose-dependent, significant reductions” and the “selectivity toward MR” value [8] was “at least 500 fold”.
